ChEMBL document CHEMBL1133292, “Some selective reactions of moenomycin A” (Bioorg Med Chem Lett, 2000)

How the values were obtained:
[1] = Compound was coli; design: species or system Escherichia coli
[2] = Compound was coli; Inactive; design: species or system Escherichia coli

`C=C(C/C=C(\C)CCC=C(C)C)CCC(C)(C)/C=C/CC/C(C)=C/CO[C@@H](COP(=O)(O)O[C@H]1O[C@H](C(N)=O)[C@@](C)(O)[C@H](OC(N)=O)[C@H]1O[C@@H]1O[C@H](CO[C@@H]2O[C@H](CO)[C@@H](O)[C@H](O)[C@H]2O)[C@@H](O[C@@H]2O[C@H](C)[C@@H](O[C@@H]3O[C@H](C(=O)NC4=C(O)CCC4=O)[C@H](O)[C@H](O)[C@H]3O)[C@H](O)[C@H]2NC(C)=O)[C@H](O)[C@H]1NC(C)=O)C(=O)O` [MOENOMYCIN A] gave an IC50 [1] of 1.5 nM l-1.

Compound `CCCCCCCCc1ccc(NCCO[C@H](COP(=O)(O)O[C@H]2O[C@@H](C(N)=O)[C@@](C)(O)[C@H](OC(N)=O)[C@@H]2O[C@@H]2O[C@@H](CO[C@@H]3O[C@@H](CO)[C@@H](O)[C@H](O)[C@@H]3O)[C@@H](O[C@@H]3O[C@@H](C)[C@@H](O[C@@H]4O[C@@H](C(N)=O)[C@H](O)[C@H](O)[C@@H]4O)[C@H](O)[C@@H]3NC(C)=O)[C@H](O)[C@@H]2NC(C)=O)C(=O)O)cc1` has an IC50 [1] of 31 nM l-1.

With `CCCCCCCCCCCCCCNCCO[C@H](COP(=O)(O)O[C@H]1O[C@@H](C(N)=O)[C@@](C)(O)[C@H](OC(N)=O)[C@@H]1O[C@@H]1O[C@@H](CO[C@@H]2O[C@@H](CO)[C@@H](O)[C@H](O)[C@@H]2O)[C@@H](O[C@@H]2O[C@@H](C)[C@@H](O[C@@H]3O[C@@H](C(N)=O)[C@H](O)[C@H](O)[C@@H]3O)[C@H](O)[C@@H]2NC(C)=O)[C@H](O)[C@@H]1NC(C)=O)C(=O)O` the IC50 [1] was 247 nM l-1.

Work on `C=CC(C)(CC/C=C(\C)CCC=C(C)C)C(O)CO[C@H](COP(=O)(O)O[C@H]1O[C@@H](C(N)=O)[C@@](C)(O)[C@H](OC(N)=O)[C@@H]1O[C@@H]1O[C@@H](CO[C@@H]2O[C@@H](CO)[C@@H](O)[C@H](O)[C@@H]2O)[C@@H](O[C@@H]2O[C@@H](C)[C@@H](O[C@@H]3O[C@@H](C(N)=O)[C@H](O)[C@H](O)[C@@H]3O)[C@H](O)[C@@H]2NC(C)=O)[C@H](O)[C@@H]1NC(C)=O)C(=O)O` (stereo not given in full) yielded an IC50 [1] of 106 nM l-1.

For `CC(=O)N[C@@H]1[C@H](O[C@H]2[C@H](O)[C@H](NC(C)=O)[C@H](O[C@@H]3[C@@H](OP(=O)(O)OC[C@@H](OCCN(C4CCCCC4)C4CCCCC4)C(=O)O)O[C@@H](C(N)=O)[C@@](C)(O)[C@@H]3OC(N)=O)O[C@H]2CO[C@@H]2O[C@@H](CO)[C@@H](O)[C@H](O)[C@@H]2O)O[C@@H](C)[C@@H](O[C@@H]2O[C@@H](C(N)=O)[C@H](O)[C@H](O)[C@@H]2O)[C@@H]1O`, the IC50 [2] was “Not Active”.
